Laboratory results taken from patent US9549905B2, “Treatment of inflammatory and infectious skin disorders” (The Regents of the University of California, priority 2011, dated 2017).
Values joined by “and” are separate entries in the source; they are usually repeats but may differ in a detail not shown here. Identical values can stand only once.

What was measured:
[1] = tested on: IL-12 secretion by primary human monocytes; test: Cytokine IL-12 assay in monocytes stimulated with P. acnes sonicate; type: cell-based; conditions: compared with 1% DMSO / untreated
Description: FIG. 3A. Cytokine IL-12 Assay.
The anti-inflammatory properties of resveratrol, benzoyl peroxide and the combination of resveratrol and benzoyl peroxide are exemplified by the cytokine IL-12 assay. […] To address this, we next investigated the cytotoxic effects of the various treatment groups.
To address this, we next investigated the cytotoxic effects of the various treatment groups.

[2] = tested on: P. acnes; test: Transmission electron microscopy of P. acnes; type: cell-based, Propionibacterium acnes; conditions: 1 mg/mL, 24 hours
Description: FIG. 4A. Electron Microscopy of P. acnes control without stimulus. […] Samples were visualized at 80 kV on a JEOL 100CX electron microscope. Bacteria were magnified according to the scale indicated below the main image, with higher magnification images located in the lower left inset.
This implies cellular lysis and death of the majority of bacterium, leaving only remaining unaffected bacteria to replicate and grow.
Resveratrol induced structural changes in the cell membrane of P. acnes. […] This implies cellular lysis and death of the majority of bacterium, leaving only remaining unaffected bacteria to replicate and grow.

[3] = tested on: primary human monocytes; test: MTS cytotoxicity assay; type: cell-based; conditions: for monocytes killed: 10 μg/mL
Method: FIG. 3B. Cytotoxicity Assay. […] The percentage of cells still viable after 16 hour incubation (compared to 1% DMSO control) were assessed (Y-axis) by measuring absorbance of the sample, which is proportional to the number of viable cells.
The cytotoxicity of resveratrol, benzoyl peroxide, and the combination of resveratrol and benzoyl peroxide was also assessed. (see FIG. 3B) We analyzed the cell viability of human monocytes using the MTS cytotoxicity assay. […] The direct cell cytotoxicity of benzoyl peroxide may explain the decrease in IL-12 activity, more a result of direct cell death, than actual anti-inflammatory properties of benzoyl peroxide.
We analyzed the cell viability of human monocytes using the MTS cytotoxicity assay.

[4] = tested on: Propionibacterium acnes ATCC strain 6919; test: Colony Forming Unit (CFU) assay of P. acnes over 10 days; type: cell-based; conditions: for bactericidal activity in comparison at equal concentration: 75 μg/mL, FIG. 2D; for antimicrobial activity over time (words): CFU assay, irrespective of concentration
Method: FIG. 2A. […] Bacterial growth was assessed in terms of the growth factor of P. acnes (Y-axis), determined by the change in the number of bacteria compared to baseline control (set at 1 on Day 0). Concentrations were obtained over a 10-day period and plotted logarithmically. FIG. 2B. Colony Forming Unit (CFU) assays of P. acnes incubated with Benzoyl Peroxide (BPO). FIG. 2C. […] FIG. 2D. […] Having described the invention in general terms, the following specific example is offered for purpose of illustration and for illustration only, and no intention to limit the invention is to be inferred there from. […] Resveratrol and benzoyl peroxide were obtained from Sigma-Aldrich St. Louis, Mo. […] Propionibacterium acnes ATCC […] strain 6919 was grown anaerobically at 37° C. in Reinforced Clostridial Media (Oxoid) for 3 days and collected in the exponential phase of growth by centrifugation. Bacteria were washed with pH 7 sodium phosphate buffer supplemented by 0.03% Trypticase Soy Media and quantified by reading with a spectrophotometer at 600 nm and applying a conversion of ˜1×10^8 bacteria=1 absorbance unit. […] Samples were incubated anaerobically at 37° C. for intervals of 1, 2, 3, 7, and 10 days and then plated on brucella agar with 5% sheep blood supplemented with hemin and vitamin K (Remel). […] The results were plotted logarithmically as multiples of the initial concentration, which was designated as 1 at Day 0.

[5] = tested on: P. acnes; test: P. acnes growth inhibition, 48 hour incubation and plating at different dilutions; type: cell-based, Propionibacterium acnes
Method: Serial dilutions of P. acnes plated without treatment provided qualitative comparisons to experimental groups treated with RES. Significant growth inhibition of P. acnes was first noted at 50 μg/mL and was dose dependent. […] (FIG. 2A).

| Structure (SMILES) | concentration from which IL-12 secretion was diminished [1] [µg/mL] | structural changes of P. acnes [2] | monocytes killed ([3]; 16 hour incubation, relative to 1% DMSO control) | lowest concentration toxic to monocytes ([3]; human, 16 h) [µg/mL] | fold more bactericidal than RES ([4]; 50 μg/mL, at 24 hours) [×] | bactericidal activity in comparison at equal concentration ([4]; 10-day period) | antimicrobial activity over time (words) [4] | antimicrobial activity over time (words) ([4]; listed as benzoyl peroxide) | lowest dose with bactericidal activity ([4]; data not shown) [µg/mL] | growth equivalent to dilution of untreated P. acnes plates ([5]; 50 μg/mL, 48 hours) [× dilution] | concentration at which significant growth inhibition of P. acnes was first noted ([5]; 48 hours incubation, about 1.33×10^6 bacteria) [µg/mL] | monocytes killed ([3]; human, 16 h) | concentrations with sustained and dose dependent bactericidal effect ([4]; 10-day period, FIG. 2A) |
| --- | --- | --- | --- | --- | --- | --- | --- | --- | --- | --- | --- | --- | --- |
| O=C(OOC(=O)c1ccccc1)c1ccccc1 [BPO, Benzoyl Peroxide] | ≥ 2.5 | structurally identical to control | greater than 90% | 5 | ~1000 | short but immediate bactericidal activity | minimal effect on bacterial growth after 24 hours | virtually no activity remaining after 48 hours | 25 | – | – | – | – |
| Oc1ccc(C=Cc2cc(O)cc(O)c2)cc1 [RES, 3,5,4′-trihydroxystilbene] | ≥ 10 | loss of membrane definition due to intramembranous edema and loss of well defined extracellular fimbrial structures | – | – | – | slow but sustained bactericidal activity | slow but sustained antimicrobial response | – | – | ~1000 | 50 | approximately 35% | 75 µg/mL and 100 µg/mL |
